Assay results published in patent US7807703B2, “Substituted aryl ketones” (Bayer CropScience AG, priority 2002, dated 2010).

Experiment: log P determination by reversed-phase HPLC (EEC Directive 79/831 Annex V.A8; acidic or neutral mobile phase)
Assay type: physicochemical
Conditions: HPLC reversed-phase C18, 43° C., acidic range: 0.1% aqueous phosphoric acid, acetonitrile (marked a))
Description: The log P values given in the table were determined in accordance with EEC Directive 79/831 Annex V.A8 by HPLC (High Performance Liquid Chromatography) using a reversed-phase column (C 18). Temperature: 43° C.
(a) Mobile phases for the determination in the acidic range: 0.1% aqueous phosphoric acid, acetonitrile; linear gradient from 10% acetonitrile to 90% acetonitrile—the corresponding measurement results are marked a) in Table 1.
(b) Mobile phases for the determination in the neutral range: 0.01 molar aqueous phosphate buffer solution, acetonitrile; linear gradient from 10% acetonitrile to 90% acetonitrile—the corresponding measurement results are marked b) in Table 1.

SMILES | logP
CS(=O)(=O)c1ccc(C(=O)C2C(=O)CCCC2=O)c(Cl)c1CNOCc1ccccc1 [Example 199] | (I-2) logP = 3.04^a)

Same assay, conditions: HPLC reversed-phase C18, 43° C.; acidic range: 0.1% aqueous phosphoric acid, acetonitrile gradient (marked a))

SMILES | logP
CCONCc1c(Cl)ccc(C(=O)c2cnn(CC)c2O)c1Cl [Example 134] | logP = 2.07^a)
O=C1CCCC(=O)C1C(=O)c1ccc(Cl)c(OCCNS(=O)(=O)C(F)(F)F)c1Cl [Example 9] | logP = 3.25^a)
CONCc1c(Cl)ccc(C(=O)C2C(=O)CCCC2=O)c1Cl [Example 129] | logP = 2.33^a)
CCCS(=O)(=O)NCCOc1c(Cl)ccc(C(=O)c2cnn(CC)c2O)c1Cl [Example 167] | logP = 2.15^a)
CS(=O)(=O)NCCOc1c(Br)ccc(C(=O)C2C(=O)CCCC2=O)c1Br [Example 18] | logP = 2.23^a)
CCN(Cc1c(S(C)(=O)=O)ccc(C(=O)C2C(=O)CCCC2=O)c1Cl)OC [Example 150] | logP = 2.87^a)
CON(C)Cc1c(S(C)(=O)=O)ccc(C(=O)C2C(=O)CCCC2=O)c1Cl [Example 145] | logP = 2.49^a)
CCn1ncc(C(=O)c2ccc(Cl)c(OCCNS(=O)(=O)C(F)(F)F)c2Cl)c1O [Example 10] | logP = 2.72^a)
CCn1ncc(C(=O)c2ccc(S(C)(=O)=O)c(CN(Cc3ccccc3)OC)c2Cl)c1O [Example 153] | (I-2) logP = 2.82^a)
C=CCN(Cc1c(S(C)(=O)=O)ccc(C(=O)C2C(=O)CCCC2=O)c1Cl)OC [Example 158] | (I-2) logP = 3.01^a)

Same assay, conditions: HPLC, reversed-phase C18, 43° C.; acidic range a): 0.1% aqueous phosphoric acid, acetonitrile, linear gradient 10% to 90% acetonitrile

SMILES | logP
CCONCc1c(Cl)ccc(C(=O)c2cnn(CC)c2O)c1OC [Example 448] | logP = 3.60^a)
CON(Cc1ccoc1)Cc1c(S(C)(=O)=O)ccc(C(=O)C2C(=O)CCCC2=O)c1Cl [Example 428] | (I-2) logP = 3.10^a)
CCn1ncc(C(=O)c2ccc(Br)c(OCCNS(C)(=O)=O)c2C)c1O [Example 365] | logP = 1.89^a)
CCN(Cc1c(Cl)ccc(C(=O)c2cnn(C)c2O)c1OC)OC [Example 486] | logP = 2.44^a)
CN(Cc1c(S(C)(=O)=O)ccc(C(=O)C2C(=O)CCCC2=O)c1Cl)OCC1CC1 [Example 444] | (I-2) logP = 3.14^a)
COCCON(C)Cc1c(S(C)(=O)=O)ccc(C(=O)c2cnn(C)c2O)c1Cl [Example 433] | (I-2) logP = 1.51^a)
CCONCc1c(Cl)ccc(C(=O)C2C(=O)CCC(C)(C)C2=O)c1Cl (stereo not shown) [Example 449] | (I-2) logP = 3.64^a)
CCn1ncc(C(=O)c2ccc(Br)c(OCCNS(=O)(=O)CC)c2C)c1O [Example 362] | logP = 2.09^a)
Cn1ncc(C(=O)c2ccc(Cl)c(OCCNS(C)(=O)=O)c2Cl)c1O [Example 353] | logP = 1.36^a)
CCON(C)Cc1c(S(C)(=O)=O)ccc(C(=O)c2cnn(CC)c2O)c1Cl [Example 413] | logP = 2.09^a)
CCN(Cc1c(S(C)(=O)=O)ccc(C(=O)c2cnn(C)c2O)c1Cl)OC [Example 369] | logP = 1.84^a)
CN(Cc1c(S(C)(=O)=O)ccc(C(=O)c2cnn(C)c2O)c1Cl)OCC1CCOC1 (stereo not shown) [Example 437] | (I-2) logP = 1.73^a)
COc1c(C(=O)C2C(=O)CC(C)CC2=O)ccc(Cl)c1CN(C)OC (stereo not shown) [Example 482] | (I-2) logP = 3.09^a)
CCn1ncc(C(=O)c2ccc(S(C)(=O)=O)c(CN(Cc3ccoc3)OC)c2Cl)c1O [Example 441] | (I-2) logP = 2.39^a)
COc1c(C(=O)C2C(=O)CCCC2=O)ccc(Cl)c1CN(C)OC [Example 477] | logP = 2.63^a)
CCn1nc(C)c(C(=O)c2ccc(Cl)c(OCCNS(C)(=O)=O)c2Cl)c1O [Example 355] | logP = 1.32^a)
CS(=O)(=O)c1ccc(C(=O)C2C(=O)CCCC2=O)c(Cl)c1CNOC1CCCC1 [Example 401] | (I-2) logP = 3.07^a)

SMILES | logP
CCONCc1c(Cl)ccc(C(=O)c2cnn(C)c2O)c1Cl [Example 450] | logP = 1.67^a)
CCN(Cc1c(S(C)(=O)=O)ccc(C(=O)c2c(C)nn(CC)c2O)c1Cl)OC [Example 406] | (I-2) logP = 2.04^a)
CCN(Cc1c(S(C)(=O)=O)ccc(C(=O)c2cnn(CC)c2O)c1Cl)S(C)(=O)=O [Example 468] | logP = 1.48^a)
CN(Cc1c(S(C)(=O)=O)ccc(C(=O)C2C(=O)CCCC2=O)c1Cl)OC1CCCC1 [Example 398] | (I-2) logP = 3.69^a)
CCON(Cc1c(S(C)(=O)=O)ccc(C(=O)C2C(=O)CCCC2=O)c1Cl)C(C)C [Example 418] | logP = 3.66^a)
CC(C)ON(Cc1c(S(C)(=O)=O)ccc(C(=O)C2C(=O)CCCC2=O)c1Cl)C(C)C [Example 420] | logP = 3.99^a)
CCN(Cc1c(Cl)ccc(C(=O)C2C(=O)CCCC2=O)c1OC)S(C)(=O)=O [Example 464] | logP = 2.47^a)
COc1c(C(=O)C2C(=O)CC(C)CC2=O)ccc(Cl)c1CN(C)S(C)(=O)=O (stereo not shown) [Example 476] | (I-2) logP = 2.56^a)
CCn1ncc(C(=O)c2ccc(S(C)(=O)=O)c(CN(C)OCCOC)c2Cl)c1O [Example 431] | (I-2) logP = 1.80^a)
CCON(CC)Cc1c(S(C)(=O)=O)ccc(C(=O)C2C(=O)CCCC2=O)c1Cl [Example 390] | logP = 3.22^a)
CCN(Cc1c(Cl)ccc(C(=O)c2cnn(CC)c2O)c1OC)S(C)(=O)=O [Example 462] | logP = 2.12^a)
CCn1ncc(C(=O)c2ccc(S(C)(=O)=O)c(CN(OC)C(C)C3CC3)c2Cl)c1O (stereo not shown) [Example 373] | (I-2) logP = 2.94^a)
Cc1c(C(=O)c2cnn(C)c2O)ccc(Br)c1OCCNS(C)(=O)=O [Example 366] | logP = 1.56^a)
CCS(=O)(=O)NCCOc1c(Br)ccc(C(=O)c2cnn(C)c2O)c1C [Example 363] | logP = 1.77^a)
CON(Cc1c(S(C)(=O)=O)ccc(C(=O)c2cnn(C)c2O)c1Cl)C1CCCC1 [Example 378] | (I-2) logP = 2.59^a)
CN(Cc1c(S(C)(=O)=O)ccc(C(=O)C2C(=O)CCC(C)(C)C2=O)c1Cl)OCC1CCOC1 (stereo not shown) [Example 436] | (I-2) logP = 3.49^a)
CN(Cc1c(S(C)(=O)=O)ccc(C(=O)c2cnn(C)c2O)c1Cl)S(C)(=O)=O [Example 453] | logP = 0.99^a)

Same assay, conditions: HPLC, reversed-phase C 18, 43° C.; acidic range: 0.1% aqueous phosphoric acid, acetonitrile (marked a) or acidic)

SMILES | log P (acidic)
COC(=O)c1ccc(S(C)(=O)=O)c(CN(OC)C(=O)C(F)(F)F)c1Cl [VIII-50] | logPacidic = 2.60
COCCON(C)Cc1c(S(C)(=O)=O)ccc(C(=O)OC)c1Cl [VIII-61] | logPacidic = 2.26
CCN(Cc1c(S(C)(=O)=O)ccc(C(=O)OC)c1Cl)OC [VIII-23] | logPacidic = 2.74
CCN(Cc1c(Cl)ccc(C(=O)OC)c1OC)S(C)(=O)=O [VIII-71] | logPacidic = 2.38
COC(=O)c1ccc(S(C)(=O)=O)c(CN(Cc2ccoc2)OC)c1Cl [VIII-57] | logPacidic = 2.91
COC(=O)c1ccc(S(C)(=O)=O)c(CN(C)OCC2CC2)c1Cl [VIII-33] | logPacidic = 2.98
COC(=O)c1ccc(Cl)c(CN(C)S(C)(=O)=O)c1Cl [VIII-68] | logPacidic = 2.15
CCN(CC)C(=O)CN(Cc1c(S(C)(=O)=O)ccc(C(=O)OC)c1Cl)OC [VIII-36] | logPacidic = 2.28
COC(=O)c1ccc(S(C)(=O)=O)c(CN(CC2CC2)OC)c1Cl [VIII-34] | logPacidic = 3.18
COC(=O)c1ccc(S(C)(=O)=O)c(CN(CC2CCOC2)OC2CCCC2)c1Cl (stereo not shown) [VIII-56] | logPacidic = 3.30
CCON(Cc1c(S(C)(=O)=O)ccc(C(=O)OC)c1Cl)CC1CCOC1 (stereo not shown) [VIII-55] | logPacidic = 2.60
COC(=O)c1ccc(S(C)(=O)=O)c(CN(OC)C2CCOC2)c1Cl (stereo not shown) [VIII-58] | logPacidic = 2.17
COC(=O)c1ccc(S(C)(=O)=O)c(OCCNS(C)(=O)=O)c1Cl [VIII-30] | logPacidic = 1.56
COC(=O)c1ccc(S(C)(=O)=O)c(CN(OC)C2CCCOC2)c1Cl (stereo not shown) [VIII-59] | logPacidic = 2.55
COC(=O)c1ccc(Cl)c(OCCNS(C)(=O)=O)c1C [VIII-26] | logPacidic = 2.14
COC(=O)c1ccc(Cl)c(CN(C)OC)c1OC [VIII-66] | logPacidic = 2.76
CCN(Cc1c(Cl)ccc(C(=O)OC)c1OC)OC [VIII-67] | logPacidic = 3.43
COC(=O)c1ccc(S(C)(=O)=O)c(CN(Cc2ccccn2)OC)c1Cl [VIII-41] | logPacidic = 1.17
COC(=O)c1ccc(S(C)(=O)=O)c(CN(OC)C2CCCC2)c1Cl [VIII-38] | logPacidic = 3.67
CCS(=O)(=O)NCCOc1c(Cl)ccc(C(=O)OC)c1C [VIII-27] | logPacidic = 2.37

Same assay, conditions: HPLC, reversed-phase C 18, 43° C.; mobile phase range not marked

SMILES | log P | logP (HPLC, mobile phase not marked)
COC(=O)c1ccc(S(C)(=O)=O)c(CNN2CCNC2=O)c1Cl [VIII-5] | logP = 1.24 | 
CCN(Cc1c(S(C)(=O)=O)ccc(C(=O)c2cnn(CC)c2O)c1Cl)OC [Example 309] |  | 2.16
CONCc1c(S(C)(=O)=O)ccc(C(=O)OC)c1Cl [VIII-10] | logP = 1.69 | 
CCn1ncc(C(=O)c2ccc(S(C)(=O)=O)c(CN(Cc3ccccc3)OC)c2Cl)c1O [Example 334] |  | 2.82
CCn1ncc(C(=O)c2ccc(S(C)(=O)=O)c(CN(OC)C(C)C)c2Cl)c1O [Example 344] |  | 2.52
CCON(CC)Cc1c(S(C)(=O)=O)ccc(C(=O)OC)c1Cl [VIII-12] | logP = 3.06 | 
CS(=O)(=O)c1ccc(C(=O)C2C(=O)CCCC2=O)c(Cl)c1CNOCc1ccccc1 [Example 348] |  | (I-2) 3.04
CCN(Cc1c(Cl)ccc(C(=O)OC)c1Cl)OC [VIII-9] | logP = 3.72 | 
